Data taken from publication PMC12786457, “Studies on the Complexation of Platinum(II) by Some 4-Nitroisothiazoles and the Cytotoxic Activity of the Resulting Complexes” (Molecules, 2025).
Like-named read-outs stand apart in the source and are kept apart here.

Tests used:
[1] = system: BALB/3T3 (mouse embryonic fibroblast); assay: SRB (sulforhodamine B) viability assay, normal cells BALB/3T3; type: cell-based; settings: normoxia, read-out: IC50 ± SD, Normal Cells BALB/3T3, Normoxia
Description: (§1) The cytotoxicity of the complexes C1–C5 was estimated by examining cell viability using the sulforhodamine B assay. […] However, due to the very poor solubility of the most polar complex C5 in acetone, its initial solution had to be prepared in polar N,N-dimethylacetamide (DMA) (see Section 3.7). Cisplatin was used as the reference drug. The results are presented as IC50 (50% inhibitory concentration), i.e., concentrations that reduce cell survival by 50%. The test was conducted on three cancer cell lines and one normal healthy cell line, namely, breast adenocarcinoma (MCF-7), ovarian adenocarcinoma (ES-2), lung adenocarcinoma (A549), and murine embryonic fibroblast (BALB/3T3).
(§2) Three solid tumor cell lines were used in this study: MCF-7 (breast adenocarcinoma), ES-2 (ovarian adenocarcinoma), and A549 (lung adenocarcinoma). The BALB/3T3 (mouse embryonic fibroblast) cell line was used as a comparative nonpathological tissue. All cell lines were purchased from the American Type Culture Collection (ATCC, Rockville, MD, USA). The preparation of cell cultures for cytotoxicity experiments is described in detail in the following article.
(§3) The initial solutions for subsequent dilutions in biological medium were prepared in a similar manner as described previously. […] The complex C5 was dissolved in the dimethylacetamide (DMA). All the initial solutions were prepared ex tempore and then were added to the culture medium 1:9 (v/v) to obtain a stock solution of 1 mg/mL.
(§4) The test was prepared and performed in the same manner as detailed in the following cited works.

[2] = system: MCF-7 (breast adenocarcinoma); assay: SRB (sulforhodamine B) viability assay, MCF-7; type: cell-based, human; settings: for IC50: SRB assay
Description: as §1, §2, §3, §4

[3] = system: ES-2 (ovarian adenocarcinoma); assay: SRB (sulforhodamine B) viability assay, ES-2; type: cell-based, human
Description: as §1, §2, §3, §4

[4] = TLC Rf as a measure of relative lipophilicity; type: physicochemical; settings: silica gel TLC Al foils
Description: Measurement of the melting points (m.p.) of the obtained compounds was performed with the Büchi M560 melting point device (BÜCHI Labortechnik AG, CH-9230 Flawil/SG, Flawil, Switzerland) and was uncorrected. The ESI-MS (electrospray ionization mass spectroscopy) spectra were recorded with the compactTM Bruker Daltonics Electrospray Ionization Quadrupole Time-of-Flight (ESI-Q-TOF) spectrometer (Bruker Daltonics GmbH, Bremen, Germany). The ESI-MS measurements for new compounds were performed in both positive- and negative-ion mode in LC-MS-grade using LC-MS grade methanol as a solvent. ESI-MS spectral analysis and the simulation of the theoretical monoisotopic mass of detected ions were performed using Bruker Compass Data Analysis 4.2 software (Bruker Daltonics GmbH, Bremen, Germany). All ^1H and ^13C-NMR spectra were recorded on the following instruments: Bruker NMR AVANCE III™ 600 MHz spectrometer with Ascend™ technology magnet with a quadruple resonance NMR ‘inverse’ cryoprobe (Bruker Corporation, Billerica, MA, USA) and/or Bruker ARX-300 (300 MHz) spectrometer (Bruker Analytische Messtechnik GmbH, Rheinstetten, Germany). The NMR measurements of samples of the compounds were carried out at room temperature (20–25 °C) using 5 mm tubes in deuterated acetone-d6. NMR chemical shifts were referenced to the solvent signal, i.e., for ^1H-NMR: δ (quintet of residual acetone-d6) = 2.05 ppm and for ^13C-NMR: δ (septet of acetone-d6) = 29.84 ppm. The Nicolet iS50 FT-IR spectrophotometer (Thermo Fisher Scientific Inc., Waltham, MA, USA) was used to record the Attenuated Total Reflectance IR (ATR-FT-IR) spectra (at MIR range 4000–450 cm^−1). Recording of spectra was performed on the diamond crystal surface (32 scans, resolution: 1 cm^−1, measurement temperature: 20–25 °C) with ATR intensity correction in the Laboratory of Elemental Analysis and Structural Research, Faculty of Pharmacy, Wroclaw Medical University. A Fourier transform, Bruker VERTEX 70V vacuum spectrometer equipped with an air-cooled DTGS detector was used to obtain the Far-IR (far-infrared) spectra (below 500 cm^−1) of the Pt(II) complexes. The spectra measurements were conducted with the ATR accessory, such as a diamond ATR crystal, in the resolution of 1 cm^−1 with 64 scans in the Laboratory of Vibrational Spectroscopy of the Faculty of Chemistry at Wrocław University of Science and Technology. No ATR intensity correction was applied to Far-IR spectra. Omnic 9.3.30 and Omnic Specta 2.0 software (Thermo Fisher Scientific Inc.) was used to process and analyze spectra. A double beam U-2800 Spectrophotometer (Hitachi—Science & Technology, Tokyo, Japan) was used to record UV spectra of Pt-complexes (C1 and C2) and reaction rate measurements of the GSH complexes. Dioxane solutions of complexes were used in the following concentrations: c = 2 × 10^−5 M and 3 × 10^−5 M, respectively, for C1 and C2. Measurement of UV spectra was conducted in quartz cuvettes (path length = 10.0 mm) in the range 190–400 nm (sampling interval 1 nm, scan speed 200 nm/min). All UV experiments were performed in the Laboratory of Elemental Analysis and Structural Research, Faculty of Pharmacy, Wroclaw Medical University. Baselines were corrected with pure dioxane as the reference solvent. Thin-layer chromatography (TLC) was used to monitor the progress of the reaction course and determine the purity of the synthesized compounds. Silica gel on TLC Al foils with fluorescent indicator 254 nm (Sigma-Aldrich, Merck Group, Darmstadt, Germany) was used as the stationary phase and chloroform–acetone mixtures (volume ratios 9:1, 7:3, and 1:1) as the eluent. Detection of Pt(II) compounds in the chromatograms was performed using a 0.5% acetone solution of rubeanic acid (dithiooxamide), and organic impurities were detected by observing the plates under UV light at 250 nm. […]

[5] = hypoxia, read-out: IC50 ± SD, MCF-7 (Breast), Hypoxia
[6] = normoxia, read-out: IC50 ± SD, MCF-7 (Breast), Normoxia
[7] = hypoxia, read-out: IC50 ± SD, ES-2 (Ovarian), Hypoxia
[8] = normoxia, read-out: IC50 ± SD, ES-2 (Ovarian), Normoxia

| Molecule | IC50 [1] [µM] | IC50 [2, 5] [µM] | IC50 [2, 6] [µM] | IC50 [3, 7] [µM] | IC50 [3, 8] [µM] | Rf, Eluent: Chlorofom:Acetone Ratio 1:1 Vol. [4] | Rf, Eluent: Chlorofom:Acetone Ratio 9:1 Vol. [4] | selectivity index (SI), healthy cells vs MCF-7 ([2]; ratio of cytotoxicity towards healthy BALB/3T3 cells to cytotoxicity towards MCF-7, normoxia) |
| --- | --- | --- | --- | --- | --- | --- | --- | --- |
| COC(=O)c1snc(C)c1[N+](=O)[O-].COC(=O)c1snc(C)c1[N+](=O)[O-].[Cl][Pt][Cl] [C4, trans-Dichlorobis(3-methyl-4-nitro-5-(methoxycarbonyl)isothiazole)platinum(II)] | 5.99 ± 1.28 | 7.68 ± 4.45 | 6.94 ± 2.25 | 5.44 ± 1.64 | 3.89 ± 1.62 | 0.863 | 0.828 |  |
| Cc1nscc1[N+](=O)[O-].Cc1nscc1[N+](=O)[O-].[Cl][Pt][Cl] [C2, trans-Dichlorobis(3-methyl-4-nitroisothiazole)platinum(II)] | 1.14 ± 0.28 | 9.07 ± 5.07 | 6.16 ± 0.78 | 1.1 ± 0.34 | 2.14 ± 2.21 | 0.833 | 0.355 | ≈ 0.2 |
| COC(=O)c1snc(C)c1[N+](=O)[O-].Cc1nscc1[N+](=O)[O-].[Cl][Pt][Cl] [C3, trans-Dichloro-3-methyl-4-nitroisothiazole 3-Methyl-4-nitro-5-(methoxycarbonyl)isothiazole Platinum(II)] | 2.94 ± 3.06 | 7.13 ± 1.93 | 5.25 ± 1.01 | 4.02 ± 2.47 | 3.9 ± 2.68 | 0.845 | 0.645 |  |
| Dichlorobis(3-methyl-4-nitroisothiazole)platinum(II) [C1] | 7.31 ± 0.82 | 8.45 ± 2.25 | 4.59 ± 1.57 | 6.37 ± 1.69 | 7.29 ± 1.42 | 0.726 | 0.054 |  |
